Experimental data taken from ChEMBL document CHEMBL2440080, “Synthesis and biological evaluation of novel acylhydrazone derivatives as potential antitumor agents” (Bioorg Med Chem, 2013).

Experiments:
Assay type in all cases: functional
[1] = test system: T47D; experiment: Cytotoxicity against human T47D cells after 48 hrs by sulforhodamine B assay
[2] = test system: MOLT-4; experiment: Cytotoxicity against human MOLT4 cells after 48 hrs by sulforhodamine B assay; details: MOLT-4, 48 h
[3] = test system: SNB-75; experiment: Cytotoxicity against human SNB75 cells after 48 hrs by sulforhodamine B assay; details: SNB-75, 48 h
[4] = test system: HCC 2998; experiment: Cytotoxicity against human HCC2998 cells after 48 hrs by sulforhodamine B assay; details: HCC 2998, 48 h
[5] = test system: SNB-19; experiment: Cytotoxicity against human SNB19 cells after 48 hrs by sulforhodamine B assay; details: SNB-19, 48 h
[6] = test system: U-251; experiment: Cytotoxicity against human U251 cells after 48 hrs by sulforhodamine B assay; details: U-251, 48 h
[7] = test system: NCI-H322M; experiment: Cytotoxicity against human NCI-H322M cells after 48 hrs by sulforhodamine B assay
[8] = test system: NCI-H460; experiment: Cytotoxicity against human NCI-H460 cells after 48 hrs by sulforhodamine B assay; details: NCI-H460, 48 h
[9] = test system: OVCAR-4; experiment: Cytotoxicity against human OVCAR4 cells after 48 hrs by sulforhodamine B assay; details: OVCAR-4, 48 h
[10] = test system: SW-620; experiment: Cytotoxicity against human SW620 cells after 48 hrs by sulforhodamine B assay; details: SW-620, 48 h
[11] = test system: HCT-116; experiment: Cytotoxicity against human HCT116 cells after 48 hrs by sulforhodamine B assay; details: HCT-116, 48 h
[12] = test system: HL-60(TB); experiment: Cytotoxicity against human HL-60(TB) cells after 48 hrs by sulforhodamine B assay; details: HL-60, 48 h
[13] = test system: MCF7; experiment: Cytotoxicity against human MCF7 cells after 48 hrs by sulforhodamine B assay; details: MCF7, 48 h
[14] = test system: OVCAR-3; experiment: Cytotoxicity against human OVCAR3 cells after 48 hrs by sulforhodamine B assay; details: OVCAR-3, 48 h
[15] = test system: UACC-257; experiment: Cytotoxicity against human UACC257 cells after 48 hrs by sulforhodamine B assay; details: UACC-257, 48 h
[16] = test system: A498; experiment: Cytotoxicity against human A498 cells after 48 hrs by sulforhodamine B assay; details: A498, 48 h
[17] = test system: UACC-62; experiment: Cytotoxicity against human UACC62 cells after 48 hrs by sulforhodamine B assay; details: UACC-62, 48 h
[18] = test system: SN12C; experiment: Cytotoxicity against human SN12C cells after 48 hrs by sulforhodamine B assay
[19] = Cytotoxicity against human Hs 578T cells after 48 hrs by sulforhodamine B assay
[20] = test system: CCRF-CEM; experiment: Cytotoxicity against human CCRF-CEM cells after 48 hrs by sulforhodamine B assay
[21] = test system: IGROV-1; experiment: Cytotoxicity against human IGROV1 cells after 48 hrs by sulforhodamine B assay; details: IGROV-1, 48 h
[22] = test system: OVCAR-5; experiment: Cytotoxicity against human OVCAR5 cells after 48 hrs by sulforhodamine B assay; details: OVCAR-5, 48 h
[23] = test system: M14; experiment: Cytotoxicity against human M14 cells after 48 hrs by sulforhodamine B assay; details: M14, 48 h
[24] = test system: HCT-15; experiment: Cytotoxicity against human HCT15 cells after 48 hrs by sulforhodamine B assay; details: HCT-15, 48 h
[25] = test system: NCI-H522; experiment: Cytotoxicity against human NCI-H522 cells after 48 hrs by sulforhodamine B assay; details: NCI-H522, 48 h
[26] = test system: OVCAR-8; experiment: Cytotoxicity against human OVCAR8 cells after 48 hrs by sulforhodamine B assay; details: OVCAR-8, 48 h
[27] = test system: HOP-62; experiment: Cytotoxicity against human HOP62 cells after 48 hrs by sulforhodamine B assay; details: HOP-62, 48 h
[28] = test system: A549; experiment: Cytotoxicity against human A549/ATCC cells after 48 hrs by sulforhodamine B assay; details: A549, 48 h
[29] = test system: HT-29; experiment: Cytotoxicity against human HT-29 cells after 48 hrs by sulforhodamine B assay; details: HT-29, 48 h
[30] = test system: CAKI-1; experiment: Cytotoxicity against human CAKI-1 cells after 48 hrs by sulforhodamine B assay; details: CAKI-1, 48 h
[31] = test system: KM12; experiment: Cytotoxicity against human KM12 cells after 48 hrs by sulforhodamine B assay; details: KM12, 48 h
[32] = test system: RPMI-8226; experiment: Cytotoxicity against human RPMI8226 cells after 48 hrs by sulforhodamine B assay; details: RPMI-8226, 48 h
[33] = Cytotoxicity against human EKVX cells after 48 hrs by sulforhodamine B assay
[34] = test system: ACHN; experiment: Cytotoxicity against human ACHN cells after 48 hrs by sulforhodamine B assay
[35] = test system: PC-3; experiment: Cytotoxicity against human PC3 cells after 48 hrs by sulforhodamine B assay; details: PC-3, 48 h
[36] = test system: SF-268; experiment: Cytotoxicity against human SF268 cells after 48 hrs by sulforhodamine B assay; details: SF-268, 48 h
[37] = test system: SK-MEL-5; experiment: Cytotoxicity against human SK-MEL-5 cells after 48 hrs by sulforhodamine B assay; details: SK-MEL-5, 48 h
[38] = test system: SR; experiment: Cytotoxicity against human SR cells after 48 hrs by sulforhodamine B assay
[39] = test system: MDA-MB-435; experiment: Cytotoxicity against human MDA-MB-435 cells after 48 hrs by sulforhodamine B assay; details: MDA-MB-435, 48 h
[40] = test system: SF-295; experiment: Cytotoxicity against human SF295 cells after 48 hrs by sulforhodamine B assay; details: SF-295, 48 h
[41] = test system: 786-0; experiment: Cytotoxicity against human 786-0 cells after 48 hrs by sulforhodamine B assay; details: 786-0, 48 h
[42] = test system: MDA-MB-231; experiment: Cytotoxicity against human MDA-MB-231 cells after 48 hrs by sulforhodamine B assay; details: MDA-MB-231, 48 h
[43] = test system: HOP-92; experiment: Cytotoxicity against human HOP92 cells after 48 hrs by sulforhodamine B assay; details: HOP-92, 48 h
[44] = test system: SF-539; experiment: Cytotoxicity against human SF539 cells after 48 hrs by sulforhodamine B assay; details: SF-539, 48 h
[45] = test system: COLO 205; experiment: Cytotoxicity against human COLO205 cells after 48 hrs by sulforhodamine B assay; details: COLO 205, 48 h
[46] = test system: Malme-3M; experiment: Cytotoxicity against human MALME-3M cells after 48 hrs by sulforhodamine B assay
[47] = test system: NCI-H226; experiment: Cytotoxicity against human NCI-H226 cells after 48 hrs by sulforhodamine B assay; details: NCI-H226, 48 h
[48] = test system: SK-MEL-2; experiment: Cytotoxicity against human SK-MEL-2 cells after 48 hrs by sulforhodamine B assay; details: SK-MEL-2, 48 h
[49] = test system: K562; experiment: Cytotoxicity against human K562 cells after 48 hrs by sulforhodamine B assay; details: K562, 48 h
[50] = test system: SK-OV-3; experiment: Cytotoxicity against human SKOV3 cells after 48 hrs by sulforhodamine B assay; details: SK-OV-3, 48 h
[51] = test system: SK-MEL-28; experiment: Cytotoxicity against human SK-MEL-28 cells after 48 hrs by sulforhodamine B assay; details: SK-MEL-28, 48 h
[52] = test system: LOX IMVI; experiment: Cytotoxicity against human LOXIMVI cells after 48 hrs by sulforhodamine B assay
[53] = test system: TK-10; experiment: Cytotoxicity against human TK10 cells after 48 hrs by sulforhodamine B assay; details: TK-10, 48 h
[54] = test system: RXF 393; experiment: Cytotoxicity against human RXF393 cells after 48 hrs by sulforhodamine B assay; details: RXF 393, 48 h
[55] = test system: UO-31; experiment: Cytotoxicity against human UO31 cells after 48 hrs by sulforhodamine B assay; details: UO-31, 48 h
[56] = test system: NCI/ADR-RES; experiment: Cytotoxicity against human NCI/ADR-RES cells after 48 hrs by sulforhodamine B assay
[57] = test system: BT-549; experiment: Cytotoxicity against human BT549 cells after 48 hrs by sulforhodamine B assay; details: BT-549, 48 h
[58] = test system: NCI-H23; experiment: Cytotoxicity against human NCI-H23 cells after 48 hrs by sulforhodamine B assay; details: NCI-H23, 48 h
[59] = test system: DU-145; experiment: Cytotoxicity against human DU145 cells after 48 hrs by sulforhodamine B assay; details: DU-145, 48 h

Work on CCN(CC)c1ccc(/C=N/NC(=O)c2ccc(Nc3ccnc(C(F)(F)F)c3)cc2)c(O)c1 yielded a GI50 [1] of 331 nM, a GI50 [2] of 162 nM and a GI50 [3] of 200 nM. The GI50 [4] was 224 nM, the GI50 [5] was 331 nM and the GI50 [6] was 200 nM. The GI50 [7] was 316 nM, the GI50 [8] was 204 nM and the GI50 [9] was 251 nM. The GI50 [10] was 339 nM, the GI50 [11] was 158 nM and the GI50 [12] was 251 nM. The GI50 [13] was 295 nM, the GI50 [14] was 316 nM and the GI50 [15] was 339 nM. It also gave a GI50 [16] of 316 nM, a GI50 [17] of 251 nM and a GI50 [18] of 363 nM. For the same compound, the GI50 [19] was 219 nM, the GI50 [20] was 120 nM and the GI50 [21] was 200 nM. The GI50 [22] was 479 nM, the GI50 [23] was 316 nM and the GI50 [24] was 100 nM. It also gave a GI50 [25] of 251 nM, a GI50 [26] of 398 nM and a GI50 [27] of 251 nM. It also gave a GI50 [28] of 331 nM, a GI50 [29] of 282 nM and a GI50 [30] of 251 nM. It also gave a GI50 [31] of 398 nM, a GI50 [32] of 126 nM and a GI50 [33] of 195 nM. The GI50 [34] was 158 nM, the GI50 [35] was 501 nM and the GI50 [36] was 200 nM. The GI50 [37] was 324 nM, the GI50 [38] was 251 nM and the GI50 [39] was 490 nM. For the same compound, the GI50 [40] was 263 nM, the GI50 [41] was 182 nM and the GI50 [42] was 398 nM. For the same compound, the GI50 [43] was 676 nM, the GI50 [44] was 200 nM and the GI50 [45] was 275 nM. It also gave a GI50 [46] of 389 nM, a GI50 [47] of 331 nM and a GI50 [48] of 398 nM. The GI50 [49] was 66.1 nM, the GI50 [50] was 234 nM and the GI50 [51] was 204 nM. The GI50 [52] was 158 nM, the GI50 [53] was 501 nM and the GI50 [54] was 200 nM. The GI50 [55] was 57.5 nM, the GI50 [56] was 1000 nM and the GI50 [57] was 501 nM. For the same compound, the GI50 [58] was 417 nM and the GI50 [59] was 501 nM.
